Assay results reported in patent US20120101093A1, “SUBSTITUTED IMIDAZO[1,2-A]PYRIDINE DERIVATIVES, PHARMACEUTICAL COMPOSITIONS, AND METHODS OF USE AS BETA-SECRETASE INHIBITORS” (HIGH POINT PHARMACEUTICALS, LLC, priority 2009, published 2012).

Molecular target: T1, BACE-1 enzyme (Homo sapiens, UniProt P56817)
T1 construct: purchased R & D Systems 931AS
Assay: BACE Fluorescence Resonance Energy Transfer (FRET) Assay
Assay type: biochemical
Details: pH 4-4.5, 30 min pre-incubation, about 1.5 hours reaction
Outline: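 BACE-1 enzyme pre-incubated 30 min with compound in 7.5% DMSO in 50 mM sodium acetate pH 4-4.5, 0.01% CHAPS, 0.0125% Triton X-100, 0.006% EDTA. Rhodamine/quencher peptide substrate added; ~1.5 h at room temperature, fluorescence read at 540/585 nm. IC50 or percent inhibition at one concentration.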

T1 sequence (P56817 46-457 limits assumed): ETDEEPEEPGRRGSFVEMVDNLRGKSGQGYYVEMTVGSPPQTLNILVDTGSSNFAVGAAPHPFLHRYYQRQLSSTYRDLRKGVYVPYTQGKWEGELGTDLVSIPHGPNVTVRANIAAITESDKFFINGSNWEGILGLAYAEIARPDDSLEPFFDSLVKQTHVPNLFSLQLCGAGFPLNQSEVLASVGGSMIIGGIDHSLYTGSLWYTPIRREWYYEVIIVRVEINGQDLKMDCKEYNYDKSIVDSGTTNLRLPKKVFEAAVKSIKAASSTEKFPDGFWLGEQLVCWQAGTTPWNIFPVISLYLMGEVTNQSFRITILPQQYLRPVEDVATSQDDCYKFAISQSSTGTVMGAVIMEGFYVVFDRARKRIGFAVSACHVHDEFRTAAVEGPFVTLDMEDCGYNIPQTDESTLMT

Row | Compound | IC50 [µM]
1 | Cc1cc(OCCN2CCCCC2)c2nc(C(=O)Nc3nc4cc(-c5cc(F)cc(Cl)c5)ccc4[nH]3)cn2c1 [Example 149, 6-Methyl-8-(2-piperidin-1-yl-ethoxy)-imidazo[1,2-a]pyridine-2-carboxylic acid [5-(3-chloro-5-fluoro-phenyl)-1H-benzoimidazol-2-yl]-amide] | 0.57
2 | Cc1cc(OCCN2CCN(C)CC2)c2nc(C(=O)Nc3nc4cc(-c5cc(F)cc(Cl)c5)ccc4[nH]3)cn2c1 [Example 150, 6-Methyl-8-[2-(4-methyl-piperazin-1-yl)-ethoxy]-imidazo[1,2-a]pyridine-2-carboxylic acid [5-(3-chloro-5-fluoro-phenyl)-1H-benzoimidazol-2-yl]-amide] | 0.46
3 | COc1cccn2cc(C(=O)Nc3nc4cc(-c5cc(F)cc(Cl)c5)ccc4[nH]3)nc12 [Example 151, 8-Methoxy-imidazo[1,2-a]pyridine-2-carboxylic acid [5-(3-chloro-5-fluoro-phenyl)-1H-benzoimidazol-2-yl]-amide] | 0.31
4 | O=C(Nc1nc2cc(-c3cc(F)cc(Cl)c3)ccc2[nH]1)c1cn2cc(F)cc(N3CC[C@H](O)C3)c2n1 [Example 152, 6-Fluoro-8-((S)-3-hydroxy-pyrrolidin-1-yl)-imidazo[1,2-a]pyridine-2-carboxylic acid [5-(3-chloro-5-fluoro-phenyl)-1H-benzoimidazol-2-yl]-amide] | 1.53
5 | O=C(Nc1nc2cc(-c3cc(F)cc(Cl)c3)ccc2[nH]1)c1cn2cc(F)cc(N3CC[C@@H](O)C3)c2n1 [Example 153, 6-Fluoro-8-((R)-3-hydroxy-pyrrolidin-1-yl)-imidazo[1,2-a]pyridine-2-carboxylic acid [5-(3-chloro-5-fluoro-phenyl)-1H-benzoimidazol-2-yl]-amide] | 1.83
6 | O=C(Nc1nc2cc(-c3cc(F)cc(Cl)c3)ccc2[nH]1)c1cn2cc(F)cc(N3CCC(O)CC3)c2n1 [Example 154, 6-Fluoro-8-(4-hydroxy-piperidin-1-yl)-imidazo[1,2-a]pyridine-2-carboxylic acid [5-(3-chloro-5-fluoro-phenyl)-1H-benzoimidazol-2-yl]-amide] | 1.33
7 | CO[C@H]1CCN(c2cccc3nc(C(=O)Nc4nc5cc(-c6cc(F)cc(Cl)c6)ccc5[nH]4)cn23)C1 [Example 157, 5-((S)-3-Methoxy-pyrrolidin-1-yl)-imidazo[1,2-a]pyridine-2-carboxylic acid [5-(3-chloro-5-fluoro-phenyl)-1H-benzoimidazol-2-yl]-amide] | 0.32
8 | O=C(Nc1nc2cc(-c3cc(F)cc(Cl)c3)ccc2[nH]1)c1cn2c(N3CCC(O)CC3)cccc2n1 [Example 158, 5-(4-Hydroxy-piperidin-1-yl)-imidazo[1,2-a]pyridine-2-carboxylic acid [5-(3-chloro-5-fluoro-phenyl)-1H-benzoimidazol-2-yl]-amide] | 0.1
9 | CO[C@H]1CCN(c2cc(F)cn3cc(C(=O)Nc4nc5cc(-c6cc(F)cc(Cl)c6)ccc5[nH]4)nc23)C1 [Example 159, 6-Fluoro-8-((S)-3-methoxy-pyrrolidin-1-yl)-imidazo[1,2-a]pyridine-2-carboxylic acid [5-(3-chloro-5-fluoro-phenyl)-1H-benzoimidazol-2-yl]-amide] | 0.34
10 | CO[C@@H]1CCN(c2cc(F)cn3cc(C(=O)Nc4nc5cc(-c6cc(F)cc(Cl)c6)ccc5[nH]4)nc23)C1 [Example 160, 6-Fluoro-8-((R)-3-methoxy-pyrrolidin-1-yl)-imidazo[1,2-a]pyridine-2-carboxylic acid [5-(3-chloro-5-fluoro-phenyl)-1H-benzoimidazol-2-yl]-amide] | 0.75
11 | O=C(Nc1nc2cc(-c3cccc(C(F)(F)F)c3)ccc2[nH]1)c1cn2c(CN3CCCCC3)cccc2n1 [Example 166, 5-Piperidin-1-ylmethyl-imidazo[1,2-a]pyridine-2-carboxylic acid [5-(3-trifluoromethyl-phenyl)-1H-benzoimidazol-2-yl]-amide] | 0.79
12 | O=C(Nc1nc2cc(-c3cccc(C(F)(F)F)c3)ccc2[nH]1)c1cn2c(CNCc3ccccc3)cccc2n1 [Example 173, 5-(Benzylamino-methyl)-imidazo[1,2-a]pyridine-2-carboxylic acid [5-(3-trifluoromethyl-phenyl)-1H-benzoimidazol-2-yl]-amide] | 0.57
13 | O=C(Nc1nc2cc(-c3cccc(C(F)(F)F)c3)ccc2[nH]1)c1cn2c(CN3CCCC3)cccc2n1 [Example 175, 5-Pyrrolidin-1-ylmethyl-imidazo[1,2-a]pyridine-2-carboxylic acid [5-(3-trifluoromethyl-phenyl)-1H-benzoimidazol-2-yl]-amide] | 0.49
14 | O=C(Nc1nc2cc(-c3cccc(C(F)(F)F)c3)ccc2[nH]1)c1cn2cc(CNC3CCCC3)ccc2n1 [Example 180, 6-Cyclopentylaminomethyl-imidazo[1,2-a]pyridine-2-carboxylic acid [5-(3-trifluoromethyl-phenyl)-1H-benzoimidazol-2-yl]-amide] | 0.51
15 | O=C(Nc1nc2cc(-c3cccc(C(F)(F)F)c3)ccc2[nH]1)c1cn2cc(CNCc3ccccc3)ccc2n1 [Example 186, 6-(Benzylamino-methyl)-imidazo[1,2-a]pyridine-2-carboxylic acid [5-(3-trifluoromethyl-phenyl)-1H-benzoimidazol-2-yl]-amide] | 0.43
16 | CN(Cc1ccccc1)Cc1cccc2nc(C(=O)Nc3nc4cc(-c5cccc(C(F)(F)F)c5)ccc4[nH]3)cn12 [Example 190, 5-[(Benzyl-methyl-amino)-methyl]-imidazo[1,2-a]pyridine-2-carboxylic acid [5-(3-trifluoromethyl-phenyl)-1H-benzoimidazol-2-yl]-amide] | 1.28
17 | CC(C)CN(C)Cc1cccc2nc(C(=O)Nc3nc4cc(-c5cccc(C(F)(F)F)c5)ccc4[nH]3)cn12 [Example 191, 5-[(Isobutyl-methyl-amino)-methyl]-imidazo[1,2-a]pyridine-2-carboxylic acid [5-(3-trifluoromethyl-phenyl)-1H-benzoimidazol-2-yl]-amide] | 1.53
18 | CC(C)(C)NCc1cccn2cc(C(=O)Nc3nc4cc(-c5cccc(C(F)(F)F)c5)ccc4[nH]3)nc12 [Example 193, 8-(tert-Butylamino-methyl)-imidazo[1,2-a]pyridine-2-carboxylic acid [5-(3-trifluoromethyl-phenyl)-1H-benzoimidazol-2-yl]-amide] | 1.65
19 | CCN(C)Cc1cccn2cc(C(=O)Nc3nc4cc(-c5cccc(C(F)(F)F)c5)ccc4[nH]3)nc12 [Example 195, 8-[(Ethyl-methyl-amino)-methyl]-imidazo[1,2-a]pyridine-2-carboxylic acid [5-(3-trifluoromethyl-phenyl)-1H-benzoimidazol-2-yl]-amide] | 1.08

More lines, in order of falling IC50, values ahead:

Row | IC50 [µM] | Compound
20 | 0.95 | CCN(C)Cc1cccc2nc(C(=O)Nc3nc4cc(-c5cccc(C(F)(F)F)c5)ccc4[nH]3)cn12 [Example 189, 5-[(Ethyl-methyl-amino)-methyl]-imidazo[1,2-a]pyridine-2-carboxylic acid [5-(3-trifluoromethyl-phenyl)-1H-benzoimidazol-2-yl]-amide]
21 | 0.8 | CN(C)Cc1ccc2nc(C(=O)Nc3nc4cc(-c5cccc(C(F)(F)F)c5)ccc4[nH]3)cn2c1 [Example 181, 6-Dimethylaminomethyl-imidazo[1,2-a]pyridine-2-carboxylic acid [5-(3-trifluoromethyl-phenyl)-1H-benzoimidazol-2-yl]-amide]
22 | 0.65 | CCN(CC)Cc1cccc2nc(C(=O)Nc3nc4cc(-c5cccc(C(F)(F)F)c5)ccc4[nH]3)cn12 [Example 168, 5-Diethylaminomethyl-imidazo[1,2-a]pyridine-2-carboxylic acid [5-(3-trifluoromethyl-phenyl)-1H-benzoimidazol-2-yl]-amide]
23 | 0.56 | CN1CCN(Cc2ccc3nc(C(=O)Nc4nc5cc(-c6cccc(C(F)(F)F)c6)ccc5[nH]4)cn3c2)CC1 [Example 183, 6-(4-Methyl-piperazin-1-ylmethyl)-imidazo[1,2-a]pyridine-2-carboxylic acid [5-(3-trifluoromethyl-phenyl)-1H-benzoimidazol-2-yl]-amide]
24 | 0.51 | CCNCc1ccc2nc(C(=O)Nc3nc4cc(-c5cccc(C(F)(F)F)c5)ccc4[nH]3)cn2c1 [Example 187, 6-Ethylaminomethyl-imidazo[1,2-a]pyridine-2-carboxylic acid [5-(3-trifluoromethyl-phenyl)-1H-benzoimidazol-2-yl]-amide]
25 | 0.43 | CC(C)(C)NCc1ccc2nc(C(=O)Nc3nc4cc(-c5cccc(C(F)(F)F)c5)ccc4[nH]3)cn2c1 [Example 178, 6-(Tert-Butylamino-methyl)-imidazo[1,2-a]pyridine-2-carboxylic acid [5-(3-trifluoromethyl-phenyl)-1H-benzoimidazol-2-yl]-amide]
26 | 0.3 | CC(C)CNCc1cccc2nc(C(=O)Nc3nc4cc(-c5cccc(C(F)(F)F)c5)ccc4[nH]3)cn12 [Example 164, 5-(Isobutylamino-methyl)-imidazo[1,2-a]pyridine-2-carboxylic acid [5-(3-trifluoromethyl-phenyl)-1H-benzoimidazol-2-yl]-amide]
27 | 0.29 | CO[C@@H]1CCN(c2cccc3nc(C(=O)Nc4nc5cc(-c6cc(F)cc(Cl)c6)ccc5[nH]4)cn23)C1 [Example 156, 5-((R)-3-Methoxy-pyrrolidin-1-yl)-imidazo[1,2-a]pyridine-2-carboxylic acid [5-(3-chloro-5-fluoro-phenyl)-1H-benzoimidazol-2-yl]-amide]
28 | 0.25 | O=C(Nc1nc2cc(-c3cc(F)cc(Cl)c3)ccc2[nH]1)c1cn2c(N3CC[C@H](O)C3)cccc2n1 [Example 155, 5-((S)-3-Hydroxy-pyrrolidin-1-yl)-imidazo[1,2-a]pyridine-2-carboxylic acid [5-(3-chloro-5-fluoro-phenyl)-1H-benzoimidazol-2-yl]-amide]
